Source: patent US7709526B2, “Use of cyclolignans and new cyclolignans” (Biovitrum AB, priority 2001, dated 2010)

What was measured:
[1] = biological target: insulin receptor kinase (Homo sapiens, UniProt P06213); conditions: cited from earlier work
[2] = biological target: isolated IGF-1R kinase (Homo sapiens, UniProt P08069); conditions: cited from earlier work
[3] = biological target: IGF-1R (Homo sapiens, UniProt P08069); assay: Effect on IGF-1R (method not given)
[4] = test system: rats; conditions: relative to podophyllotoxin; cited from earlier work
[5] = test system: microtubuli; conditions: relative to podophyllotoxin; cited from earlier work
[6] = test system: malignant cells; assay: Cell death in malignant cells; assay type: cell-based

Sequence of insulin receptor kinase (P06213 28-1382): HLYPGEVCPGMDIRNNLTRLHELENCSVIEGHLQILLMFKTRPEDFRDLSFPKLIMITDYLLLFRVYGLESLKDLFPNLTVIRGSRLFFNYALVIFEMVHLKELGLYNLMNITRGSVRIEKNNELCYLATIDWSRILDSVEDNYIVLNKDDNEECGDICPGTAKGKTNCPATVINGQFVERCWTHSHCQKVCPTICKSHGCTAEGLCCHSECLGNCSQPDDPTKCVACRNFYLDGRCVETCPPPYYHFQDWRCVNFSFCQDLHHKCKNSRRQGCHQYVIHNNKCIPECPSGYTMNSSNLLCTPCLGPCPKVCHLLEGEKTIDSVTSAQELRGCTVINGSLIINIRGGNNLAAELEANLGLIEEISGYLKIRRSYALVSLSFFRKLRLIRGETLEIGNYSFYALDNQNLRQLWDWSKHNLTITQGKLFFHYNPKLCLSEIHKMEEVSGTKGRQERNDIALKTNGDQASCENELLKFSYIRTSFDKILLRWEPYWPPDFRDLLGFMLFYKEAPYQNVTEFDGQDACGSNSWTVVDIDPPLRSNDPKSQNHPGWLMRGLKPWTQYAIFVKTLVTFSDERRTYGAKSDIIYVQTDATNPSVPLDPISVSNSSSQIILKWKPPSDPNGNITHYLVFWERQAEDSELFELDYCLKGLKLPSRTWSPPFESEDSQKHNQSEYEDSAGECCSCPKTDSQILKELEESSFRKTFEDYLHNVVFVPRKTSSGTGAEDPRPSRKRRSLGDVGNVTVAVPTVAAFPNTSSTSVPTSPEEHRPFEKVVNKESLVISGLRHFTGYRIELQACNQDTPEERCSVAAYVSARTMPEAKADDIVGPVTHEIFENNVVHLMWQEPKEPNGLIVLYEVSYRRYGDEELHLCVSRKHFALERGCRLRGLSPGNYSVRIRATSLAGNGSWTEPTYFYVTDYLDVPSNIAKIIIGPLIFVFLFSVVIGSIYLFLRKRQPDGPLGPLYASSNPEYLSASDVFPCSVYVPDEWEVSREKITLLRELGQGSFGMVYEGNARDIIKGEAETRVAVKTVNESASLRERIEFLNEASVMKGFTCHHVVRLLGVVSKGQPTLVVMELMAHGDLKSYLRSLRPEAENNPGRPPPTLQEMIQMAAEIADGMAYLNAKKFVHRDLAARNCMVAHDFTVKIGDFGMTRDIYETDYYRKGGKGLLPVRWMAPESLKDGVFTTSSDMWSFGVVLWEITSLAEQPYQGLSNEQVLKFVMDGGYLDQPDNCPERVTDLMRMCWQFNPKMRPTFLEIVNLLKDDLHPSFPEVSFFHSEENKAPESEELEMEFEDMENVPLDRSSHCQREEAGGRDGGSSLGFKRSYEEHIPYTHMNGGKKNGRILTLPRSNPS
Sequence of isolated IGF-1R kinase (P08069 31-1367): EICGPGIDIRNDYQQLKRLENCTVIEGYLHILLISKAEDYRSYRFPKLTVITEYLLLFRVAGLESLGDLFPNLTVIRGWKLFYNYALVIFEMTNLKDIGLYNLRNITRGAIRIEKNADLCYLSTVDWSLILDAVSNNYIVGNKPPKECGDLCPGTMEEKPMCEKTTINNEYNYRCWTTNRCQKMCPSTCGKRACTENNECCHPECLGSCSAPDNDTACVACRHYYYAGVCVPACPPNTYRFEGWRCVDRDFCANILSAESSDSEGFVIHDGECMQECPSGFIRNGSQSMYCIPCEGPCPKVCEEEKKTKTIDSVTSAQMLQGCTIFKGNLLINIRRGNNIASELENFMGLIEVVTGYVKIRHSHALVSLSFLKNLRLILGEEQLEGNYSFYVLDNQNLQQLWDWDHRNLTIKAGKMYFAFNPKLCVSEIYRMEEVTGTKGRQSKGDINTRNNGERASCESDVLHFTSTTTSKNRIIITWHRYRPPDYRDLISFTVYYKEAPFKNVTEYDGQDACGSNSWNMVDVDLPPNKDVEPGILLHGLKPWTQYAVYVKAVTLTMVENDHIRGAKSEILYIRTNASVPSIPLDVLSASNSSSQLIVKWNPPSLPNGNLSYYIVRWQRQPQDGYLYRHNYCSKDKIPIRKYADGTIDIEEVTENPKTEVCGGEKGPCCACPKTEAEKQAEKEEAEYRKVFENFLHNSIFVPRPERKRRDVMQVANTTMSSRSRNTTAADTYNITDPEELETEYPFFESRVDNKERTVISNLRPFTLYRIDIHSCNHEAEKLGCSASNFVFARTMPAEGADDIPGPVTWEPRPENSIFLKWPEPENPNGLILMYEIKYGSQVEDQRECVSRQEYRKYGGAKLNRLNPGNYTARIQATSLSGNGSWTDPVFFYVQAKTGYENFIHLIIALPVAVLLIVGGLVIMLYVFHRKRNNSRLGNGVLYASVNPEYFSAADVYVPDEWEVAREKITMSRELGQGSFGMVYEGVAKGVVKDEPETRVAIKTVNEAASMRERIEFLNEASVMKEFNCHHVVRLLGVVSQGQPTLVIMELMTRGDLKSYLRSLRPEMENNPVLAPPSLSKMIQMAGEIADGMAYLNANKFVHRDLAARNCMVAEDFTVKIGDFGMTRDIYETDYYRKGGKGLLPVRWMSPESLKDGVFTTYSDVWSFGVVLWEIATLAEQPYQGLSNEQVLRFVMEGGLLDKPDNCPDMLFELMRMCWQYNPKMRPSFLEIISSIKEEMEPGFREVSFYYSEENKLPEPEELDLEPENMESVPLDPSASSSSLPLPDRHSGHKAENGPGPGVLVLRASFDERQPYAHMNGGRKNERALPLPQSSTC
Sequence of IGF-1R (P08069 31-1367, species assumed): as the sequence (P08069 31-1367) above

Compound	effect on insulin receptor kinase [1]	IC50 [2] [µM]	effect on IGF-1R / inhibition of IGF-1R activity (in words) [3]	LD50 in rats, fold higher than podophyllotoxin [4]	affinity for microtubuli, fold lower than podophyllotoxin [5] [fold]	cell death in malignant cells (in words) [6]
N#C/C(=C\c1ccc(O)c(O)c1)C(=O)c1ccc(O)c(O)c1 [tyrphostin AG 538]	also blocked the insulin receptor kinase	0.4	–	–	–	–
COc1cc([C@@H]2c3cc4c(cc3[C@H](O)[C@H]3COC(=O)[C@@H]23)OCO4)cc(OC)c1OC [picropodophyllin]	–	–	equipotent to podophyllotoxin	more than 35 fold	50	equipotent to podophyllotoxin
